Reference: US20120015907A1, “Furopyridine compounds and uses thereof” (NOVARTIS AG, priority 2010, published 2012)

target: T1, HCV polymerase (Hepatitis C virus genotype 1b, UniProt Q9WMX2); test: biochemical; conditions: polymerase assay of Biological Example 1; read-out: NS5B polymerase IC50
T1 construct: (His)6 (C)
Excerpt: A number of assays have been published to assess these activities. A general method that assesses the gross increase of HCV virus in culture was disclosed in U.S. Pat. No. 5,738,985 to Miles et al. In vitro assays have been reported in Ferrari et al. Jnl. of Vir., 73:1649-1654, 1999; Ishii et al., Hepatology, 29:1227-1235, 1999; Lohmann et al., Jnl of Bio. Chem., 274:10807-10815, 1999; and Yamashita et al., Jnl. of Bio. Chem., 273:15479-15486, 1998.
WO 97/12033, filed on Sep. 27, 1996, by Emory University, listing C. Hagedorn and A. Reinoldus as inventors, which claims priority to U.S. Provisional Patent Application Ser. No. 60/004,383, filed on September 1995, described an HCV polymerase assay that can be used to evaluate the activity of the of the compounds described herein. Another HCV polymerase assay has been reported by Bartholomeusz, et al., Hepatitis C Virus (HCV) RNA polymerase assay using cloned HCV non-structural proteins; Antiviral Therapy 1996:1(Supp 4) 18-24.

Row | SMILES | IC50
1 | CNC(=O)c1c(-c2ccc(F)cc2)oc2nc(N(CCCS(C)(=O)=O)S(C)(=O)=O)c(I)cc12 [Example 18.993, 2-(4-fluorophenyl)-5-iodo-N-methyl-6-(N-(3-(methylsulfonyl)propyl)methylsulfonamido)furo[2,3-b]pyridine-3-carboxamide] | 112 nM
2 | CNC(=O)c1c(-c2ccc(C)cc2)oc2nc(N(CCCC3CCCC3C(=O)O)S(C)(=O)=O)c(I)cc12 (stereo not shown) [Example 18.9991, 2-(3-(N-(5-iodo-3-(methylcarbamoyl)-2-p-tolylfuro[2,3-b]pyridin-6-yl)methylsulfonamido)propyl)cyclopentanecarboxylic acid] | 5 nM
3 | CNC(=O)c1c(-c2ccc(F)cc2)oc2nc(N(CCCCN)S(C)(=O)=O)c(I)cc12 [Example 20, 6-[(4-Amino-butyl)-methanesulfonyl-amino]-2-(4-fluoro-phenyl)-5-iodo-furo[2,3-b]pyridine-3-carboxylic acid methylamide] | 1840 nM
4 | CCc1cc2c(C(=O)NC)c(-c3ccc(F)cc3)oc2nc1N(CCCCC(=O)OC)S(C)(=O)=O [Example 21, methyl 5-(N-(5-ethyl-2-(4-fluorophenyl)-3-(methylcarbamoyl)furo[2,3-b]pyridin-6-yl)methylsulfonamido)pentanoate] | 10 nM
5 | CCc1cc2c(C(=O)NC)c(-c3ccc(F)cc3)oc2nc1N(CCCC(=O)OC)S(C)(=O)=O [Example 21.1, methyl 4-(N-(5-ethyl-2-(4-fluorophenyl)-3-(methylcarbamoyl)furo[2,3-b]pyridin-6-yl)methylsulfonamido)butanoate] | 52 nM
6 | CCc1cc2c(C(=O)NC)c(-c3ccc(F)cc3)oc2nc1N(CCCC(C)(C)C(=O)O)S(C)(=O)=O [Example 21.4, 5-(N-(5-ethyl-2-(4-fluorophenyl)-3-(methylcarbamoyl)furo[2,3-b]pyridin-6-yl)methylsulfonamido)-2,2-dimethylpentanoic acid] | 7 nM
7 | CCc1cc2c(C(=O)NC)c(-c3ccc(F)cc3)oc2nc1N(CCCOc1ccccc1C#N)S(C)(=O)=O [Example 21.5, 6-(N-(3-(2-cyanophenoxy)propyl)methylsulfonamido)-5-ethyl-2-(4-fluorophenyl)-N-methylfuro[2,3-b]pyridine-3-carboxamide] | 191 nM
8 | CCc1cc2c(C(=O)NC)c(-c3ccc(F)cc3)oc2nc1N(C[C@H](C)Cc1ccc(OC)nc1)S(C)(=O)=O [Example 21.7, (R)-5-ethyl-2-(4-fluorophenyl)-6-(N-(3-(6-methoxypyridin-3-yl)-2-methylpropyl)methylsulfonamido)-N-methylfuro[2,3-b]pyridine-3-carboxamide] | 531 nM
9 | CCc1cc2c(C(=O)NC)c(-c3ccc(F)cc3)oc2nc1N(CCOCCOC)S(C)(=O)=O [Example 21.8, 5-ethyl-2-(4-fluorophenyl)-6-(N-(2-(2-methoxyethoxy)ethyl)methylsulfonamido)-N-methylfuro[2,3-b]pyridine-3-carboxamide] | 688 nM
10 | CCc1cc2c(C(=O)NC)c(-c3ccc(F)cc3)oc2nc1N(CCCN1CCOCC1)S(C)(=O)=O [Example 21.93, 5-ethyl-2-(4-fluorophenyl)-N-methyl-6-(N-(3-morpholinopropyl)methylsulfonamido)furo[2,3-b]pyridine-3-carboxamide] | 186 nM
11 | CCc1cc2c(C(=O)NC)c(-c3ccc(F)cc3)oc2nc1N(CCCN1CCN(C)C1=O)S(C)(=O)=O [Example 21.94, 5-ethyl-2-(4-fluorophenyl)-N-methyl-6-(N-(3-(3-methyl-2-oxoimidazolidin-1-yl)propyl)methylsulfonamido)furo[2,3-b]pyridine-3-carboxamide] | 77 nM
12 | CCc1cc2c(C(=O)NC)c(-c3ccc(F)cc3)oc2nc1N(CCOc1ccccc1C#N)S(C)(=O)=O [Example 21.95, 6-(N-(2-(2-cyanophenoxy)ethyl)methylsulfonamido)-5-ethyl-2-(4-fluorophenyl)-N-methylfuro[2,3-b]pyridine-3-carboxamide] | 119 nM
13 | CCc1cc2c(C(=O)NC)c(-c3ccc(F)cc3)oc2nc1N(CCCS(=O)(=O)N1CCOCC1)S(C)(=O)=O [Example 21.98, 5-ethyl-2-(4-fluorophenyl)-N-methyl-6-(N-(3-(morpholinosulfonyl)propyl)methylsulfonamido)furo[2,3-b]pyridine-3-carboxamide] | 37 nM

Continued, values first:

Row | IC50 | SMILES
14 | 39 nM | CNC(=O)c1c(-c2ccc(F)cc2)oc2nc(N(CCCC(C)O)S(C)(=O)=O)c(I)cc12 (stereo not shown) [Example 18.998, 2-(4-fluorophenyl)-6-(N-(4-hydroxypentyl)methylsulfonamido)-5-iodo-N-methylfuro[2,3-b]pyridine-3-carboxamide]
15 | 4 nM | CNC(=O)c1c(-c2ccc(C)cc2)oc2nc(N(CCC3CCCC3C(=O)O)S(C)(=O)=O)c(I)cc12 (stereo not shown) [Example 18.999, 2-(2-(N-(5-iodo-3-(methylcarbamoyl)-2-p-tolylfuro[2,3-b]pyridin-6-yl)methylsulfonamido)ethyl)cyclopentanecarboxylic acid]
16 | 12 nM | CCc1cc2c(C(=O)NC)c(-c3ccc(F)cc3)oc2nc1N(CCCCC(=O)O)S(C)(=O)=O [Example 21.2, 5-(N-(5-ethyl-2-(4-fluorophenyl)-3-(methylcarbamoyl)furo[2,3-b]pyridin-6-yl)methylsulfonamido)pentanoic acid]
17 | 134 nM | CCc1cc2c(C(=O)NC)c(-c3ccc(F)cc3)oc2nc1N(CCCC(C)(C)C(=O)OCC(C)C)S(C)(=O)=O [Example 21.3, isobutyl 5-(N-(5-ethyl-2-(4-fluorophenyl)-3-(methylcarbamoyl)furo[2,3-b]pyridin-6-yl)methylsulfonamido)-2,2-dimethylpentanoate]
18 | 948 nM | CCc1cc2c(C(=O)NC)c(-c3ccc(F)cc3)oc2nc1N(C[C@@H](C)Cc1ccc(OC)nc1)S(C)(=O)=O [Example 21.6, (S)-5-ethyl-2-(4-fluorophenyl)-6-(N-(3-(6-methoxypyridin-3-yl)-2-methylpropyl)methylsulfonamido)-N-methylfuro[2,3-b]pyridine-3-carboxamide]
19 | 772 nM | CCc1cc2c(C(=O)NC)c(-c3ccc(F)cc3)oc2nc1N(CCc1cccc(OC)c1)S(C)(=O)=O [Example 21.9, 5-ethyl-2-(4-fluorophenyl)-6-(N-(3-methoxyphenethyl)methylsulfonamido)-N-methylfuro[2,3-b]pyridine-3-carboxamide]
20 | 570 nM | CCc1cc2c(C(=O)NC)c(-c3ccc(F)cc3)oc2nc1N(CCOc1ccccc1OC)S(C)(=O)=O [Example 21.91, 5-ethyl-2-(4-fluorophenyl)-6-(N-(2-(2-methoxyphenoxy)ethyl)methylsulfonamido)-N-methylfuro[2,3-b]pyridine-3-carboxamide]
21 | 352 nM | CCc1cc2c(C(=O)NC)c(-c3ccc(F)cc3)oc2nc1N(CCCOc1ccccc1OC)S(C)(=O)=O [Example 21.92, 5-ethyl-2-(4-fluorophenyl)-6-(N-(3-(2-methoxyphenoxy)propyl)methylsulfonamido)-N-methylfuro[2,3-b]pyridine-3-carboxamide]
22 | 72 nM | CCc1cc2c(C(=O)NC)c(-c3ccc(F)cc3)oc2nc1N(CCCCOc1ccccc1C#N)S(C)(=O)=O [Example 21.96, 6-(N-(4-(2-cyanophenoxy)butyl)methylsulfonamido)-5-ethyl-2-(4-fluorophenyl)-N-methylfuro[2,3-b]pyridine-3-carboxamide]
